We go through 30 compounds from patent publication US11001590B2, “Pyrazolopyrimidine derivatives” (BAYER ANIMAL HEALTH GMBH, priority 2016, dated 2021).

Data set [1] relates to Dirofilaria immitis microfilariae. The experiment in a line: In vitro assay 3: Dirofilaria immitis microfilariae (DIROIM L1), motility. To be noted: 72 h, reduction of motility vs negative control, 72 h incubation.
Data set [2] in a line: log P by HPLC on reversed phase columns (Method L0; [a] acidic, [b] neutral range).
Experimental: Calibration was done with straight-chain alkan-2-ones (with 3 to 16 carbon atoms) with known log P values (measurement of log P values using retention times with linear interpolation between successive alkanones). Lambda-max-values were determined using UV-spectra from 200 nm to 400 nm and the peak values of the chromatographic signals.
Another data set deals with C. elegans Slo-1a (Caenorhabditis elegans, UniProt Q95V25). Put plainly: In vitro assay 1: C. elegans Slo-1a, action at a recombinant C. elegans CHO cell line (membrane potential measurement).
Chain of C. elegans Slo-1a (Q95V25 whole entry): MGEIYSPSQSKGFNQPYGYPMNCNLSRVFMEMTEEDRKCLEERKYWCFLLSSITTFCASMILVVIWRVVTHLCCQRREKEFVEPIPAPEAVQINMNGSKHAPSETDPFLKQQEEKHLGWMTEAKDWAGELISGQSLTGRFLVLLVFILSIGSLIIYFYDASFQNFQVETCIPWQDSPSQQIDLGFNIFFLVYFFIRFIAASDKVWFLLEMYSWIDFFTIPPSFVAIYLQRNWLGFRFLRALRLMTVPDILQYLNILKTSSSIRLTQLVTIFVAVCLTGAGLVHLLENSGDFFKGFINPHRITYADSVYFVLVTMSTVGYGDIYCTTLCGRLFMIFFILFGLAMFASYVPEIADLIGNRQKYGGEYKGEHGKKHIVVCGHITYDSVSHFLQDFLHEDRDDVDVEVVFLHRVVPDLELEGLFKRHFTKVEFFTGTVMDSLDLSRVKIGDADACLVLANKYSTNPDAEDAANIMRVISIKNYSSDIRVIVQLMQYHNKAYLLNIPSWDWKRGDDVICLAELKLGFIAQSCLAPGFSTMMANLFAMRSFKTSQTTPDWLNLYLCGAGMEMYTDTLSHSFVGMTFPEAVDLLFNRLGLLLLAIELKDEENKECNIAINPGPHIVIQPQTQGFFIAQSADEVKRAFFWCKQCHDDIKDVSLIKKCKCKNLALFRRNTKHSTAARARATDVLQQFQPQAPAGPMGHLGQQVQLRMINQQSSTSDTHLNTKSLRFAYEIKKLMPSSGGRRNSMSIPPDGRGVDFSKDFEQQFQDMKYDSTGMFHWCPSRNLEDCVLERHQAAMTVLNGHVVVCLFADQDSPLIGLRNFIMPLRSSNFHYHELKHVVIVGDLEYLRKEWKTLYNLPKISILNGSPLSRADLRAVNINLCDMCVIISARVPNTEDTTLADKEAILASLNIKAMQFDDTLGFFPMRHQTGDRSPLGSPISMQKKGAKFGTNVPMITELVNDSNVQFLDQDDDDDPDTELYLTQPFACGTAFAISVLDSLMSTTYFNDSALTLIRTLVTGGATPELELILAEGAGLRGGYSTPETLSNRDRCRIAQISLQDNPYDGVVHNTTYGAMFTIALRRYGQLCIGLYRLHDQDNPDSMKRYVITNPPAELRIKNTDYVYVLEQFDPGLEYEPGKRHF

Experimental for C. elegans Slo-1a: In Vitro Assay 1: C. Eleqans Slo-La—Action at a Recombinant C. elegans Cell Line
Cells were cultured at 37° C. and 5% CO2 in MEMalpha with Gutamax I (Invitrogen, Nr.: 32571), supplemented with 10% (v/v) heat inactivated fetal bovine serum (Invitrogen, Nr.: 10500), G418 (1 mg/ml, Invitrogen, Nr.: 10131). Cells were detached using Accutase (Sigma, Nr.: A6964).
Membrane Potential Measurements
Laboratory compound testing was performed on 384-well microtiter plates (MTPs, Greiner, Nr.: 781092). 8000 cells/well were plated onto 384-well MTPs and cultured for 20 to 24 hours at 37° C. and 5% CO2. After removal of the cell culture medium, the cells were washed once with tyrode (150 mM NaCl, 0.3 mM KCl, 2 mM CaCl2, 1 mM MgCl2, 0.8 mM NaH2PO4, 5 mM Glucose, 28 mM Hepes, pH 7.4) and then loaded with the voltage sensitive dye of the Membrane Potential Assay Kit diluted in tyrode for 1 h at room temperature.
After starting the measurement of fluorescence using a FLIPR Tetra (Molecular Devices, Exc. 510-545 nm, Emm. 565-625 nm), test compounds were added followed by the addition of KCl tyrode (final assay concentration: 70 mM KCl, 2 mM CaCl2, 1 mM MgCl2, 0.8 mM NaH2PO4, 5 mM Glucose, 28 mM Hepes, pH 7.4, including the voltage sensitive dye). The measurement was completed after 7 minutes.

`Cc1nn2c(Cc3ccc(F)cc3)c(C(=O)N[C@H]3CCOc4ccccc43)cnc2c1-c1c(F)cccc1Cl` [Example 228]: the EC50 in data set [1] was below 1 µg/mL; at C. elegans Slo-1a, 3.16 µM. Moreover, the chromatographic logP in data set [2] came to 4.72.

Regarding `Cc1nn2c(C(C)C)c(C(=O)N[C@H]3CCc4ccccc43)cnc2c1-c1ccc(C(F)(F)F)cc1` [Example 332], the half-maximal effective concentration (EC50) was below 1 µg/mL in data set [1] and 0.0158 µM at C. elegans Slo-1a. For the same compound, the chromatographic logP in data set [2] was 5.32.

Consider `COc1cc(-c2c(C)nn3c(C(C)C)c(C(=O)N[C@H]4CCCc5ccccc54)cnc23)cc(C(F)(F)F)c1` [Example 363], for which the concentration for a half-maximal effect (EC50) was below 10 µg/mL in data set [1] and 0.0631 µM at C. elegans Slo-1a. The compound further returned a chromatographic logP in data set [2] of 5.7.

Turning to `Cc1nn2c(C(C)C)c(C(=O)N[C@H]3CCOc4ccccc43)cnc2c1-c1ccc(Cl)c(F)c1` [Example 220], the EC50 was below 1 µg/mL in data set [1] and 0.02 µM at C. elegans Slo-1a. In addition, in data set [2], the chromatographic logP was found to be 5.08.

As to `Cc1nn2c(C(C)C)c(C(=O)N[C@H]3CCc4ccccc43)cnc2c1-c1cccc(C(F)(F)F)n1` [Example 179], the EC50 was below 10 µg/mL in data set [1] and 0.398 µM on C. elegans Slo-1a. In data set [2], this compound returned a chromatographic logP of 5.39.

Take `Cc1nn2c(C(C)C)c(C(=O)N[C@H]3CCc4ccccc43)cnc2c1-c1cccc(OC(C)C)c1` [Example 321]: the concentration for a half-maximal effect (EC50) in data set [1] was below 1 µg/mL; at C. elegans Slo-1a, 0.01 µM. The chromatographic logP in data set [2] is 5.28.

Turning to `Cc1nn2c(C3CC3)c(C(=O)N[C@H]3CCc4ccccc43)cnc2c1-c1cccc(N2CC(F)C2)c1` [Example 466], the EC50 is below 10 µg/mL in data set [1] and 0.01 µM on C. elegans Slo-1a. This compound registered a chromatographic logP in data set [2] of 3.85.

As for `Cc1nn2c(C(C)C)c(C(=O)N[C@H]3CCc4ccccc43)cnc2c1-c1ccnc(Cl)c1` [Example 313], the EC50 in data set [1] was below 10 µg/mL; at C. elegans Slo-1a, 0.158 µM. Besides, in data set [2], the chromatographic logP was found to be 4.23.

Take `Cc1nn2c(C(C)C)c(C(=O)N[C@H]3CCOc4ccccc43)cnc2c1-c1ccccc1C#N` [Example 264]: the concentration for a half-maximal effect (EC50) was below 1 µg/mL in data set [1] and 0.0251 µM at C. elegans Slo-1a. The chromatographic logP in data set [2] was determined as 3.68.

As for `Cc1nn2c(C(C)C)c(C(=O)N[C@H]3CCc4ccccc43)cnc2c1-c1cccc(S(C)(=O)=O)c1` [Example 288], the EC50 in data set [1] was below 10 µg/mL; at C. elegans Slo-1a it was 0.2 µM. For the same compound, in data set [2], the chromatographic logP came out at 3.57.

For `CCS(=O)(=O)c1nn2c(C(C)C)c(C(=O)N[C@H]3CCOc4ccccc43)cnc2c1-c1cc(Cl)cc(Cl)c1` [Example 212], the values for the EC50 (in data set [1]; at C. elegans Slo-1a) were below 10 µg/mL and 0.501 µM, respectively. Moreover, in data set [2], the chromatographic logP was determined as 4.37.

Take `CC(C)c1c(C(=O)N[C@H]2CCc3ccccc32)cnc2c(-c3c(F)cc(F)cc3F)c(C(F)(F)F)nn12` [Example 133]: the EC50 in data set [1] is below 1 µg/mL; at C. elegans Slo-1a, 0.0794 µM. Further, in data set [2], the chromatographic logP turned out to be 5.01.

As for `Cc1nn2c(C(C)C)c(C(=O)N[C@H]3CCc4ccccc43)cnc2c1-c1cccc(NS(C)(=O)=O)c1` [Example 308], the EC50 in data set [1] was below 10 µg/mL; at C. elegans Slo-1a, 1.58 µM. In addition, the chromatographic logP in data set [2] came out at 3.44.

Consider `Cc1nn2c(C(C)C)c(C(=O)N[C@H]3CCc4ccccc43)cnc2c1-c1cccc(C(F)F)c1` [Example 151], for which the EC50 was below 1 µg/mL in data set [1] and 0.0316 µM at C. elegans Slo-1a. The chromatographic logP in data set [2] came out at 4.67.

On to `Cc1nn2c(C(C)C)c(C(=O)N[C@H]3CCc4ccccc43)cnc2c1-c1ccc(Br)cc1` [Example 207], for which the EC50 is below 10 µg/mL in data set [1] and 0.0501 µM at C. elegans Slo-1a. The compound further yielded a chromatographic logP in data set [2] of 5.31.

With `Cc1nn2c(C3CC3)c(C(=O)N[C@H]3CCc4ccccc43)cnc2c1-c1cccc(C(F)(F)F)c1` [Example 304], the 50% effective concentration (EC50) in data set [1] is below 1 µg/mL; at C. elegans Slo-1a, 0.02 µM. This compound showed a chromatographic logP in data set [2] of 4.55.

Take `COc1cc(-c2c(C)nn3c(C(C)C)c(C(=O)N[C@H]4CCc5ccccc54)cnc23)cc(C(F)(F)F)c1` [Example 312]: the EC50 is below 10 µg/mL in data set [1] and 0.0251 µM at C. elegans Slo-1a. Moreover, the chromatographic logP in data set [2] stood at 5.41.

As for `CCC(C)c1c(C(=O)N[C@H]2CCc3ccccc32)cnc2c(-c3c(F)cccc3Cl)c(C)nn12` (stereo partly drawn) [Example 222], the concentration giving a half-maximal response (EC50) in data set [1] was below 0.1 µg/mL; on C. elegans Slo-1a, 0.0398 µM. Further, the chromatographic logP in data set [2] was 4.98.

`CSCc1cccc(-c2c(C)nn3c(C(C)C)c(C(=O)N[C@H]4CCc5ccccc54)cnc23)c1` [Example 388]: the EC50 in data set [1] is below 1 µg/mL; at C. elegans Slo-1a, 0.00794 µM. In data set [2], this compound yielded a chromatographic logP of 5.

As to `Cc1nn2c(C(C)C)c(C(=O)N[C@H]3CCc4ccccc43)cnc2c1-c1ccc(Cl)cc1Cl` [Example 181], the EC50 in data set [1] was below 0.1 µg/mL; at C. elegans Slo-1a it was 0.0126 µM. In addition, the chromatographic logP in data set [2] is 5.31.

With `CC(C)c1c(C(=O)N[C@H]2CCCc3ccccc32)cnc2c(-c3c(F)cccc3F)c(C(F)(F)F)nn12` [Example 138], the EC50 is below 10 µg/mL in data set [1] and 0.316 µM at C. elegans Slo-1a. This compound came in with a chromatographic logP in data set [2] of 5.06.

For `CC(C)c1c(C(=O)N[C@H]2CCc3ccccc32)cnc2c(-c3c(F)cccc3F)c(C3CC3)nn12` [Example 413], the EC50 is below 1 µg/mL in data set [1] and 0.251 µM on C. elegans Slo-1a. Also, the chromatographic logP in data set [2] came to 4.96.

As to `Cc1nn2c(C(C)C)c(C(=O)N[C@H]3CCc4ccccc43)cnc2c1-c1cncc(Cl)c1` [Example 314], the EC50 is below 0.1 µg/mL in data set [1] and 0.0158 µM on C. elegans Slo-1a. This compound also showed a chromatographic logP in data set [2] of 4.19.

`Cc1nn2c(C(C)C)c(C(=O)N[C@H]3CCc4ccccc43)cnc2c1-c1cccc(CN2CCN(C)CC2)c1` [Example 399]: the EC50 in data set [1] was below 10 µg/mL; on C. elegans Slo-1a, 7.94 µM. In addition, the chromatographic logP in data set [2] worked out at 1.98.

For `Cc1nn2c(C(C)C)c(C(=O)N[C@H]3CCCc4ccccc43)cnc2c1-c1ccc(F)c(F)c1` [Example 102], the EC50 was below 10 µg/mL in data set [1] and 0.0631 µM at C. elegans Slo-1a. In data set [2], this compound registered a chromatographic logP of 5.14.

As for `Cc1nn2c(C(C)C)c(C(=O)N[C@H]3CCCc4ccccc43)cnc2c1-c1cccc2c1OC(F)(F)O2` [Example 146], the values for the EC50 (in data set [1]; at C. elegans Slo-1a) were below 0.1 µg/mL and 0.0251 µM, respectively. In data set [2], this compound showed a chromatographic logP of 5.47.

For `CC(C)c1c(C(=O)N[C@H]2CCc3ccccc32)cnc2c(-c3cc(Cl)cc(C(F)(F)F)c3)c(C(F)(F)F)nn12` [Example 150], the EC50 in data set [1] is below 10 µg/mL; at C. elegans Slo-1a, 0.0501 µM. The compound also registered a chromatographic logP in data set [2] of 6.22.

For `Cc1nn2c(C(C)C)c(C(=O)N[C@H]3CCOc4ccccc43)cnc2c1-c1ccc(Cl)cc1` [Example 118], the EC50 in data set [1] was below 0.1 µg/mL; on C. elegans Slo-1a it was 0.0158 µM. This compound also registered a chromatographic logP in data set [2] of 4.88.

With `CC(C)c1c(C(=O)N[C@H]2CCc3ccccc32)cnc2c(-c3cccc(OC(F)(F)F)c3)c(C(F)(F)F)nn12` [Example 149], the EC50 in data set [1] is below 10 µg/mL; at C. elegans Slo-1a it was 0.0631 µM. In data set [2], this compound registered a chromatographic logP of 5.55.

With `Cc1nn2c(C(C)C)c(C(=O)N[C@H]3CCc4ccccc43)cnc2c1-c1cccc(N2CCCC2)c1` [Example 329], the EC50 in data set [1] was below 10 µg/mL; on C. elegans Slo-1a, 0.0251 µM. Besides, the chromatographic logP in data set [2] is 5.44.

The EC50 is the concentration at which the effect is half-maximal. One may read the chromatographic logP as a lipophilicity value derived from retention on a column. A high value points to higher lipophilicity.
